Measurements from patent US20220387466A1, “COMPOUNDS AND PHARMACEUTICAL COMPOSITIONS FOR PREVENTION AND/OR TREATMENT OF DYSBIOSIS AND ANTIBACTERIAL ANTIDOTES FOR MICROBIOME-PROTECTION” (priority 2019, published 2022).
Where a name gives a salt, the structure may show the parent alone.

Columns and labels:
B. vulgatus [1] = experiment: Prestwick library screen for microbiome-protective antibiotic antagonists (growth AUC z-scores); type: cell-based, Bacteroides vulgatus; details: Doxycycline 0.08 μM + 20 μM drug, z-score of normalized growth AUC, two replicates
B. uniformis [2] = experiment: as above; type: cell-based, Bacteroides uniformis; details: z-score of normalized growth AUC, two replicates
Description: The inventors reasoned that it should be possible to identify drugs that selectively antagonize the effect of antibiotics on gut microbes, while retaining activity against pathogens. Therefore, the inventors screened the Prestwick library to identify antagonizing compounds to erythromycin or doxycycline on two abundant and prevalent gut microbes, B. vulgatus and B. uniformis.
Preparation of screening plates. The Prestwick Chemical Library was purchased from Prestwick Chemical Inc. and drugs were re-arrayed, diluted and stored in 96 well format as described before. The inventors prepared drug plates (2×drug concentration) in MGAM medium and stored them at −30° C. For each experiment, drug plates were thawed, supplemented with the respective antibiotic solution (freshly prepared in MGAM) and pre-reduced in the anaerobic chamber overnight. All rearranging and aliquoting steps were done using the Biomek FXP (Beckman Coulter) system.
Inoculation and screening conditions. Strains were grown twice overnight, the second overnight culture was diluted in MGAM to reach OD578 nm 0.04 (4×the desired starting OD). 25 μl of the diluted cultures were used to inoculate wells containing 50 μl of 2× concentrated Prestwick drug and 25 μl of the 4× concentrated antibiotic using the semi-automated, 96-well multi-channel pipette epMotion 96 (Eppendorf). Each well contained 1% DMSO, 20 μM of the Prestwick drug and a species-specific antibiotic concentration that was just inhibitory for the respective strain (0.625 μM for erythromycin, 0.04 μM doxycycline for B. uniformis and 0.08 μM doxycycline for B. vulgatus). Plates were sealed with breathable membranes (Breathe-Easy®) and OD578 was measured hourly after 30 sec of linear shaking with a microplate spectrophotometer (EON, Biotek) and an automated microplate stacker (Biostack 4, Biotek) fitted inside a custom-made incubator (EMBL Mechanical Workshop). Growth curves were collected up to 24 h. For each antibiotic, each species was screen in biological duplicates. All experiments included control wells of unperturbed growth (32 wells per run) and control wells for growth in the presence of the antibiotic only (8 wells per plate).
Analysis pipeline and hit calling: All growth curves within a plate were truncated at the transition time from exponential to stationary phase and converted to normalized AUCs using in-run control wells (no drug) as described before. The inventors then calculated z-scores based on these normalized AUCs, removed replicates with 8-fold differences in z-scores to eliminate noise effects, computed mean z scores across the two replicates and selected combinations with mean z-scores >3. This selection included 19 potential antibiotic antagonists and the inventors followed up on 14 of them (7 potential erythromycin and 7 potential doxycycline antagonists in either B. vulgatus or B. uniformis—see FIG. 4) in independent experiments.

B. uniformis [3] = experiment: Validation of microbiome-protective antagonists (concentration-dependent growth rescue); type: cell-based, Bacteroides uniformis; details: antagonist gradient, normalized AUC >0.25 = growth rescue
Description: (§1) Validation of microbiome-protective antagonists: In a first step, the inventors kept the erythromycin/doxycycline concentration constant (0.625 μM for erythromycin, 0.078 μM (B. vulgates)/0.039 μM (B. uniformis) for doxycycline) and tested concentration gradients of the potential antagonists with ranges depending on the antagonist's solubility. Compounds were purchased from independent vendors and dissolved at 100× starting concentration in DMSO. Eight 2-fold serial dilutions were prepared in 96-well plates with each row containing a different antagonist, sufficient control DMSO wells and wells with just the respective antibiotic (‘antibiotic-only’ control). These master plates were diluted in MGAM medium (50 μl) to 2×assay concentration and 25 μl freshly prepared antibiotic solution (4× test concentration) was added. Plates were pre-reduced overnight in an anaerobic chamber and inoculated with 25 μl of overnight cultures (prepared as described under “Growth conditions”) to reach a starting OD578 of 0.01 and 1% DMSO concentration. Growth was monitored hourly for 24 h after 30 sec of linear shaking. Experiments were performed in biological triplicates. For analysis, growth curves were converted into normalized AUCs (see above). The inventors accounted for residual growth in the presence of the antibiotic by subtracting the median normalized AUCs of the ‘antibiotic-only’ control per plate.

[4] = tested on: synthetic gut commensal community of seven human gut commensals; experiment: Synthetic gut commensal community growth with macrolide and antidote (Example 5); type: cell-based; details: erythromycin and azithromycin
Description: Heat maps depict area under the growth curve (AUC) of a synthetic community consisting of seven human gut commensals. Shown is the median AUC of three individual replicates. All drug concentrations are in μM.
So far, antidote effects have only been analyzed in single or pure cultures. However, the human gut microbiome is a complex community of many different bacterial taxa that is usually not adequately mimicked in monocultures.

E. faecalis [5] = experiment: E. faecalis-containing synthetic community, E. faecalis CFU on selective medium (Example 7); type: cell-based, Enterococcus faecalis
Description: (§2) Heat maps show median area under the growth curve (AUC) of the seven-member synthetic community including the pathogen E. faecalis. The numbers within the heat map represent the total number of all E. faecalis viable cells for each erythromycin-antidote combination as determined by enumerating of E. faecalis colony forming units after plating on selective medium. All drug concentrations are in μM. n. d.=not detectable.
(§3) The inventors exposed synthetic communities that contained the intestinal gut pathogen E. faecalis to erythromycin, and evaluated rescue of gut commensals and simultaneous killing of the pathogen in the presence of antidotes.

[6] = tested on: species of the order Bacteroidales; experiment: Antidote vs azithromycin across seven gut Bacteroidales (Example 4); type: cell-based; details: combination with azithromycin
Description: The antidotes dicumarol (first column), benzbromarone (second column) and tolfenamic acid (third column) were tested for their efficacy in antagonizing the macrolide antibiotic azithromycin across seven prevalent and abundant gut Bacteroidales (B. vulgatus, B. fragilis NT, B. thetaiotaomicron, P. copri, B. caccae, B. ovatus, P. distasonis). […] All drug concentrations are in μM.
In particular, they aimed at testing, whether these antidotes can also protect from other macrolides such as azithromycin, a clinically more relevant antibiotic.

B. vulgatus [7] = experiment: 8x8 checkerboard assay for anaerobic commensals (antibiotic vs antagonist); type: cell-based, Bacteroides vulgatus
Description: Checkerboard assays for anaerobic commensals: Validated antagonists were further investigated in 8×8 checkerboard assays, where both antibiotics and antagonists were titrated against each other. Such assays were first performed for the commensals that were originally screened (i. e. B. vulgatus and B. uniformis—4 replicates) and later expanded towards 6 further gut microbes (B. caccae, B. fragilis NT, B. ovatus, B. thetaiotaomicron, P. copri, P. distasonis—2 replicates). For vertical gradients, 2-fold serial dilutions of the antagonists were prepared first in 100× in DMSO and diluted in MGAM as described above (section ‘Validation of microbiome-protective antagonists’). Horizontal antibiotic dilution series were freshly prepared in MGAM at 4× final concentration in equidistant concentration steps. Both, vertical and horizontal dilution series were combined (50 μl of the antagonist gradients (2×) and 25 μl of the antibiotic gradients (4×)) in 96 well plates. Plates were pre-reduced under anaerobic conditions overnight, inoculated with 25 μl of diluted overnight culture (at 4× starting OD) and sealed with breathable membrane (Breathe-Easy®). Bacterial growth was monitored once per hour for 24 hours after 30 sec linear shaking (Eon+Biostack 4, Biotek) under anaerobic conditions. Growth curves were converted into normalized AUCs as described using in-plate controls to define unperturbed growth.

E. faecalis [8] = experiment: Antidote with macrolide on enterococci (Example 6); type: cell-based, Enterococcus faecalis
Description: Heat maps show median area under the growth curve (AUC) of three biologically independent replicates. […] All drug concentrations are in μM.
Here, the inventors expanded testing towards additional antidotes, and included the intestinal human pathogen Enterococcus faecalis.

[9] = tested on: seven-member synthetic community including the pathogen E. faecalis; experiment: E. faecalis-containing synthetic community, community growth AUC (Example 7); type: cell-based
Description: as §2, §3

E. faecium = experiment: Antidote with macrolide on enterococci (Example 6); type: cell-based
B. vulgatus [10] = experiment: Validation of microbiome-protective antagonists (concentration-dependent growth rescue); type: cell-based, Bacteroides vulgatus; details: Doxycycline 0.078 μM constant, antagonist gradient, normalized AUC >0.25 = growth rescue
Description: as §1

[11] = Erythromycin 0.625 μM + 20 μM drug
[12] = erythromycin 1.15 μM + 40 μM dicumarol or 20 μM benzbromarone
[13] = Doxycycline 0.04 μM + 20 μM drug

Structure (SMILES): CC/C(=C(/CC)c1ccc(O)cc1)c1ccc(O)cc1 [Diethylstilbestrol]
- Mean z-score (B. vulgatus [1]): 3.296
- Mean z-score (B. uniformis [2]; [11]): 9.258
- Validation (B. uniformis [3]; Erythromycin 0.625 μM constant): TRUE

Structure (SMILES): CCc1oc2ccccc2c1C(=O)c1cc(Br)c(O)c(Br)c1 [Benzbromarone]
- protection (growth rescue) of synthetic gut commensal community from macrolide antibiotics [4]: can be Protected
- E. faecalis counts (E. faecalis [5]; [12]): drop/are still found at below the detection limit
- E. faecalis cells in community under erythromycin + antidote (E. faecalis [5]; erythromycin + antidote): efficiently inhibited
- protection of Bacteroidales species from azithromycin [6]: can be Protected
- rescue of B. vulgatus growth from erythromycin (B. vulgatus [7]; combination with erythromycin): can rescue the growth
- interaction with antibacterial effects of erythromycin/azithromycin (E. faecalis [8]): synergized
- rescue from erythromycin or azithromycin treatment (E. faecalis [8]): Neither dicumarol nor benzbromarone or tolfenamic acid could rescue
- community growth (AUC) [9, 12]: the community is rescued
- rescue of the community despite erythromycin treatment ([9]; erythromycin + antidote): rescue of the community
- Mean z-score (B. uniformis [2]; [11]): 6.034
- Validation (B. uniformis [3]; Erythromycin 0.625 μM constant): FALSE
- interaction with antibacterial effects of erythromycin/azithromycin (E. faecium): synergized
- rescue from erythromycin or azithromycin treatment (E. faecium): Neither dicumarol nor benzbromarone or tolfenamic acid could rescue

Structure (SMILES): Oc1cc(Cl)ccc1Oc1ccc(Cl)cc1Cl [Triclosan]
- Mean z-score (B. uniformis [2]; [13]): 3.066
- Validation (B. uniformis [3]; Doxycycline 0.039 μM constant): FALSE

Structure (SMILES): CCCCCN(CCCCC)C(=O)C(CCC(=O)O)NC(=O)c1ccc(Cl)c(Cl)c1 (stereo not shown) [Lorglumide sodium salt]
- Mean z-score (B. uniformis [2]; [11]): 6.106
- Validation (B. uniformis [3]; Erythromycin 0.625 μM constant): TRUE

Structure (SMILES): Cc1ccc(Cl)c(Nc2ccccc2C(=O)O)c1Cl [Meclofenamic acid sodium salt monohydrate]
- Mean z-score (B. vulgatus [1]): 3.010

Structure (SMILES): O=C(O)c1cc(-c2ccc(F)cc2F)ccc1O [Diflunisal]
- Mean z-score (B. vulgatus [1]): 3.265
- Validation (B. vulgatus [10]): TRUE
- rescue of B. vulgatus growth from doxycycline (B. vulgatus [7]; combination with doxycycline): rescued

Structure (SMILES): Cc1ccc(-c2cc(C(F)(F)F)nn2-c2ccc(S(N)(=O)=O)cc2)cc1 [Celecoxib]
- Mean z-score (B. uniformis [2]; [13]): 3.275

Structure (SMILES): CC(C)c1c(CN(C)C(C)Cc2ccccc2)n(C)n(-c2ccccc2)c1=O (stereo not shown) [Famprofazone]
- Mean z-score (B. uniformis [2]; [11]): 7.832
- Validation (B. uniformis [3]; Erythromycin 0.625 μM constant): FALSE

Structure (SMILES): CCC(Cc1c(I)cc(I)c(N)c1I)C(=O)O (stereo not shown) [Iopanoic acid]
- Mean z-score (B. vulgatus [1]): 5.698
- Validation (B. vulgatus [10]): TRUE

Structure (SMILES): CC[C@H](c1ccc(O)cc1)[C@@H](CC)c1ccc(O)cc1 [Hexestrol]
- Mean z-score (B. uniformis [2]; [11]): 9.630
- Validation (B. uniformis [3]; Erythromycin 0.625 μM constant): TRUE

Structure (SMILES): O=C1Nc2ccc(Cl)cc2[C@@](C#CC2CC2)(C(F)(F)F)O1 [Efavirenz]
- Mean z-score (B. vulgatus [1]): 3.138

Structure (SMILES): O=C(O)Cc1cc(I)c(Oc2ccc(O)c(I)c2)c(I)c1 [3,3′,5-triiodothyroacetic acid]
- Mean z-score (B. uniformis [2]; [13]): 4.333
- Validation (B. uniformis [3]; Doxycycline 0.039 μM constant): TRUE

Structure (SMILES): N#CC(c1ccc(Cl)cc1)c1c(Cl)cc(-n2ncc(=O)[nH]c2=O)cc1Cl (stereo not shown) [Diclazuril]
- Mean z-score (B. vulgatus [1]): 3.117

Structure (SMILES): CCCCc1nc(Cl)c(CO)n1Cc1ccc(-c2ccccc2-c2nn[nH]n2)cc1 [Losartan]
- Mean z-score (B. uniformis [2]; [13]): 3.421
- Validation (B. uniformis [3]; Doxycycline 0.039 μM constant): FALSE
